In the NIST ThermoML archive (doi:10.1021/acs.jced.8b00153):
Where “and” joins values, the source holds several entries; their conditions need not be identical. Identical values can stand only once.

Conditions: for speed of sound / mass density / vapor or sublimation pressure / viscosity: Liquid; for speed of sound: Frequency=3 MHz, Single path-length method; for mass density: Vibrating tube method; for vapor or sublimation pressure: Ebulliometric method (Recirculating still); for surface tension liquid-gas: Drop volume; for viscosity: Capillary tube (Ostwald / Ubbelohde) method

CCc1cccs1 [2-ethylthiophene]
Conditions | mass density | speed of sound [m/s] | viscosity [mPa·s]
313.15 K, 100 kPa | 973.34 kg/m3 and 973.3 kg/m3 | 1237.7 | –
313.15 K, 2000 kPa | 975 kg/m3 | – | –
313.15 K, 5000 kPa | 977.54 kg/m3 | – | –
313.15 K, 7000 kPa | 979.22 kg/m3 | – | –
313.15 K, 10000 kPa | 981.68 kg/m3 | – | –
313.15 K, 15000 kPa | 985.61 kg/m3 | – | –
313.15 K, 20000 kPa | 989.42 kg/m3 | – | –
313.15 K, 25000 kPa | 993.09 kg/m3 | – | –
313.15 K, 30000 kPa | 996.63 kg/m3 | – | –
313.15 K, 35000 kPa | 1000.06 kg/m3 | – | –
313.15 K, 40000 kPa | 1003.38 kg/m3 | – | –
313.15 K, 45000 kPa | 1006.6 kg/m3 | – | –
313.15 K, 50000 kPa | 1009.71 kg/m3 | – | –
313.15 K, 55000 kPa | 1012.75 kg/m3 | – | –
313.15 K, 60000 kPa | 1015.69 kg/m3 | – | –
313.15 K, 65000 kPa | 1018.54 kg/m3 | – | –
315.65 K, 100 kPa | 970.77 kg/m3 | 1227.7 | 0.613
318.15 K, 100 kPa | 968.32 kg/m3 and 968.24 kg/m3 | 1218 | 0.5981
318.15 K, 2000 kPa | 970.02 kg/m3 | – | –
318.15 K, 5000 kPa | 972.64 kg/m3 | – | –
318.15 K, 7000 kPa | 974.36 kg/m3 | – | –
318.15 K, 10000 kPa | 976.86 kg/m3 | – | –
318.15 K, 15000 kPa | 980.93 kg/m3 | – | –
318.15 K, 20000 kPa | 984.83 kg/m3 | – | –
318.15 K, 25000 kPa | 988.58 kg/m3 | – | –
318.15 K, 30000 kPa | 992.22 kg/m3 | – | –
318.15 K, 35000 kPa | 995.71 kg/m3 | – | –
318.15 K, 40000 kPa | 999.11 kg/m3 | – | –
318.15 K, 45000 kPa | 1002.39 kg/m3 | – | –
318.15 K, 50000 kPa | 1005.57 kg/m3 | – | –
318.15 K, 55000 kPa | 1008.66 kg/m3 | – | –
318.15 K, 60000 kPa | 1011.66 kg/m3 | – | –
318.15 K, 65000 kPa | 1014.56 kg/m3 | – | –
320.65 K, 100 kPa | 965.71 kg/m3 | 1208.3 | 0.584
323.15 K, 100 kPa | 963.21 kg/m3 and 963.18 kg/m3 | 1198 | 0.5702
323.15 K, 2000 kPa | 964.97 kg/m3 | – | –
323.15 K, 5000 kPa | 967.69 kg/m3 | – | –
323.15 K, 7000 kPa | 969.44 kg/m3 | – | –
323.15 K, 10000 kPa | 972.03 kg/m3 | – | –
323.15 K, 15000 kPa | 976.2 kg/m3 | – | –
323.15 K, 20000 kPa | 980.22 kg/m3 | – | –
323.15 K, 25000 kPa | 984.06 kg/m3 | – | –
323.15 K, 30000 kPa | 987.78 kg/m3 | – | –
323.15 K, 35000 kPa | 991.35 kg/m3 | – | –
323.15 K, 40000 kPa | 994.81 kg/m3 | – | –
323.15 K, 45000 kPa | 998.17 kg/m3 | – | –
323.15 K, 50000 kPa | 1001.41 kg/m3 | – | –
323.15 K, 55000 kPa | 1004.56 kg/m3 | – | –
323.15 K, 60000 kPa | 1007.62 kg/m3 | – | –
323.15 K, 65000 kPa | 1010.59 kg/m3 | – | –
325.65 K, 100 kPa | 960.64 kg/m3 | 1188.3 | 0.5566
328.15 K, 100 kPa | 958.12 kg/m3 and 958.1 kg/m3 | 1179.1 | 0.5437
328.15 K, 2000 kPa | 959.94 kg/m3 | – | –
328.15 K, 5000 kPa | 962.71 kg/m3 | – | –
328.15 K, 7000 kPa | 964.53 kg/m3 | – | –
328.15 K, 10000 kPa | 967.18 kg/m3 | – | –
328.15 K, 15000 kPa | 971.45 kg/m3 | – | –
328.15 K, 20000 kPa | 975.56 kg/m3 | – | –
328.15 K, 25000 kPa | 979.5 kg/m3 | – | –
328.15 K, 30000 kPa | 983.31 kg/m3 | – | –
328.15 K, 35000 kPa | 986.98 kg/m3 | – | –
328.15 K, 40000 kPa | 990.51 kg/m3 | – | –
328.15 K, 45000 kPa | 993.94 kg/m3 | – | –
328.15 K, 50000 kPa | 997.24 kg/m3 | – | –
328.15 K, 55000 kPa | 1000.47 kg/m3 | – | –
328.15 K, 60000 kPa | 1003.58 kg/m3 | – | –
328.15 K, 65000 kPa | 1006.6 kg/m3 | – | –
330.65 K, 100 kPa | 955.55 kg/m3 | 1168.7 | 0.5313
333.15 K, 100 kPa | 952.99 kg/m3 and 953 kg/m3 | 1159.1 | 0.519
333.15 K, 2000 kPa | 954.85 kg/m3 | – | –
333.15 K, 5000 kPa | 957.72 kg/m3 | – | –
333.15 K, 7000 kPa | 959.58 kg/m3 | – | –
333.15 K, 10000 kPa | 962.31 kg/m3 | – | –
333.15 K, 15000 kPa | 966.72 kg/m3 | – | –
333.15 K, 20000 kPa | 970.93 kg/m3 | – | –
333.15 K, 25000 kPa | 974.97 kg/m3 | – | –
333.15 K, 30000 kPa | 978.86 kg/m3 | – | –
333.15 K, 35000 kPa | 982.61 kg/m3 | – | –
333.15 K, 40000 kPa | 986.22 kg/m3 | – | –
333.15 K, 45000 kPa | 989.73 kg/m3 | – | –
333.15 K, 50000 kPa | 993.09 kg/m3 | – | –
333.15 K, 55000 kPa | 996.39 kg/m3 | – | –
333.15 K, 60000 kPa | 999.56 kg/m3 | – | –
333.15 K, 65000 kPa | 1002.62 kg/m3 | – | –
335.65 K, 100 kPa | 950.44 kg/m3 | 1149.9 | 0.5072
338.15 K, 100 kPa | 947.86 kg/m3 and 947.89 kg/m3 | 1140.3 | 0.4965
338.15 K, 2000 kPa | 949.78 kg/m3 | – | –
338.15 K, 5000 kPa | 952.72 kg/m3 | – | –
338.15 K, 7000 kPa | 954.65 kg/m3 | – | –
338.15 K, 10000 kPa | 957.46 kg/m3 | – | –
338.15 K, 15000 kPa | 961.97 kg/m3 | – | –
338.15 K, 20000 kPa | 966.32 kg/m3 | – | –
338.15 K, 25000 kPa | 970.44 kg/m3 | – | –
338.15 K, 30000 kPa | 974.41 kg/m3 | – | –
338.15 K, 35000 kPa | 978.26 kg/m3 | – | –
338.15 K, 40000 kPa | 981.96 kg/m3 | – | –
338.15 K, 45000 kPa | 985.53 kg/m3 | – | –
338.15 K, 50000 kPa | 988.98 kg/m3 | – | –
338.15 K, 55000 kPa | 992.31 kg/m3 | – | –
338.15 K, 60000 kPa | 995.56 kg/m3 | – | –
338.15 K, 65000 kPa | 998.71 kg/m3 | – | –

Conditions | surface tension liquid-gas [mN/m] | vapor or sublimation pressure [kPa]
315.55 K | – | 3.01
315.65 K | 28.16 | –
318.15 K | 27.84 | –
320.65 K | 27.54 | –
321.73 K | – | 4.095
323.15 K | 27.27 | –
325.65 K | 26.93 | –
326.03 K | – | 5.05
328.15 K | 26.69 | –
330.65 K | 26.36 | –
330.78 K | – | 6.285
333.15 K | 26.03 | –
335.65 K | 25.74 | –
336.67 K | – | 8.17
338.15 K | 25.45 | –
342 K | – | 10.22
346.57 K | – | 12.34
351.71 K | – | 15.14
356.68 K | – | 18.34
360.83 K | – | 21.48
365.1 K | – | 24.99
370.4 K | – | 30.07
374.16 K | – | 34.19
379.56 K | – | 40.88
382.77 K | – | 45.27
387.16 K | – | 51.94
390.75 K | – | 57.93
394.79 K | – | 65.36
397.67 K | – | 71.07
401.74 K | – | 79.78
404.64 K | – | 86.5
406.64 K | – | 91.35
409.15 K | – | 97.8
410.46 K | – | 101.33
